The values below come from US20240252546A1, “NEURITE OUTGROWTH PROMOTION KIT AND USE THEREFOR” (KEIO UNIVERSITY, priority 2021, published 2024).

What all share (assay type): cell-based, human
In test [1] the test system is nerve cells induced from neurospheres derived from 201B7 cells. Kind of test: Neurite outgrowth of nerve cells differentiated from γ-secretase inhibitor-treated neurospheres (Experimental Example 1). The conditions noted are these: for neurite outgrowth, Tau protein immunostaining / neurite outgrowth (length of the neurite), βIII-tubulin immunostaining: 201B7 neurospheres cultured 24 hours with inhibitor (10 μM DAPT, 1 μM Compound 34), differentiated 14 days; for neurite outgrowth (length of the neurite), βIII-tubulin immunostaining: vs control and other γ-secretase inhibitors. An excerpt:
Various γ-secretase inhibitors were allowed to act on neurospheres derived from human iPS cells. Subsequently, each neurosphere was induced to differentiate into nerve cells, and the neurite outgrowth was examined. The following inhibitors were used as γ-secretase inhibitors: DAPT (CAS Number: 208255-80-5), Compound 34 (CAS Number: 564462-36-8), L-685,458 (CAS Number: 292632-98-5), LY411575 (CAS number: 209984-57-6), Sulindac (CAS number: 38194-50-2, which is also an anti-inflammatory drug), and Compound E (CAS number: 209986-17-4).
First, 201B7 cells, which are cells of a human iPS cell line, were differentiated into neurospheres. 3 μM SB431542 (Tocris Bioscience, catalog number: “301836-41-9”) and 150 nM LDN193189 (StemRD Inc., catalog number: “1062368-24-4”) were added to a culture medium of 201B7 cells, and the cells were treated for 6 days.
Subsequently, the cells were dissociated and seeded in a cell culture dish (product name: “ultralow-attachment culture dish”, Corning Incorporated) at a cell density of 1× 10^5 cells/mL in a nerve induction medium, and then cultured for 6 days in a hypoxic and moist environment (4% O2 and 5% CO2) to carry out differentiation into neurospheres.
The culture medium used as the nerve induction medium was a culture medium obtained by adding a 2% B27 supplement (without vitamin A, Thermo Fisher Scientific, Inc., catalog number: “17504-044”), 20 ng/ml of FGF2 (PeproTech, Inc.), 10 μM Y27632 (Sigma-Aldrich Co., LLC, catalog number: “146986-50-7”), 1 μM retinoic acid (RA, Sigma-Aldrich Co., LLC, catalog number: “R2625-1G”), 3 μM CHIR 99021 (ReproCELL Inc., catalog number: “04-0004”), and 10 μM SB431542 (Calbiochem, catalog number: “301836-41-9”), to an MHM medium of which the composition is shown in Table 1 below.
Subsequently, the formed neurospheres were dissociated into single cells, the single cells were passaged in a modified nerve induction medium and cultured for 6 days in a hypoxic environment (4% O2). The culture medium used as the modified nerve induction medium was a culture medium obtained by adding a 2% B27 supplement (without vitamin A, catalog number: “17504-044”, Thermo Fisher Scientific, Inc.), 20 ng/ml of FGF2 (PeproTech, Inc.), 10 μM Y27632 (catalog number: “146986-50-7”, Sigma-Aldrich Co., LLC), and 1 μM retinoic acid (RA, catalog number: “R2625-1G”, Sigma-Aldrich Co., LLC), to an MHM medium of which the composition is shown in Table 1 above.
Subsequently, neurospheres were cultured for 24 hours in the presence of each γ-secretase inhibitor. Each inhibitor was added to a culture medium of the neurosphere so that the final concentration was 10 μM for DAPT, 1 μM for Compound 34, 10 μM for L-685,458, 10 μM for LY411575, 10 μM for Sulindac, and 5 μM for Compound E. In addition, a control group cultured in the absence of a γ-secretase inhibitor was also prepared.
Subsequently, each neurosphere was seeded on a 48-well chamber slide (IWAKI & CO., LTD.) coated with poly-L-ornithine/fibronectin, cultured for 14 days in a culture medium containing no growth factor at 37° C. in an environment of 95% air and 5% CO2, and differentiated into nerve cells.
Subsequently, each of the obtained nerve cells was fixed with 4% paraformaldehyde in 0.1 M PBS, and each of βIII-tubulin, which is a nerve cell marker, and the Tau protein, which is frequently distributed in axons, was immunostained, and the length of the neurite was measured.
FIG. 2 is a graph in which the results of FIGS. 1(a) to 1(g) are quantified. […]

Test [2] concerns phosphorylated CDC25B. Kind of test: Immunostaining of phosphorylated CDC25B in treated neurospheres (Experimental Example 4). The note with it: 201B7 neurospheres; 10 μM DAPT, 1 μM Compound 34, 24 hours; vs control. Here is the method: Neurospheres derived from 201B7 cells were treated with various γ-secretase inhibitors in the same manner as in Experimental Example 1. As the γ-secretase inhibitor, DAPT, Compound 34, L-685,458, LY411575, Sulindac, and Compound E were used at the same concentrations as in Experimental Example 1. Subsequently, each neurosphere was fixed with paraformaldehyde and subjected to immunostaining of phosphorylated CDC25B.
FIG. 8 is a graph showing the results obtained by quantifying the amount of the phosphorylated CDC25B in the neurosphere which had been treated with each of the γ-secretase inhibitors.

Test [3] deals with CDC25B. Kind of test: Expression level of CDC25B by RNA-seq (Experimental Example 4). The note with it: 201B7 neurospheres, vs control. An excerpt: FIG. 9 is a graph showing the results obtained by treating the neurosphere derived from 201B7 cells with each of DAPT and Compound 34, carrying out the RNA-seq analysis, and quantifying the expression level of CDC25B based on transcriptome data.

For test [4], the system named is GADD45G. Kind of test: Expression level of GADD45G in treated neurospheres by RNA-seq (Experimental Example 2). The conditions noted are these: vs control. The procedure:
Neurospheres derived from 201B7 cells, which are cells of a human iPS cell line, were prepared in the same manner as in Experimental Example 1.
In addition, neurospheres derived from 414C2 cells, which are cells of a human iPS cell line, were prepared according to the following method. First, 414C2 cells were subjected to adhesion culture for 12 days together with fibroblasts derived from a mouse embryo. Subsequently, the cells were subjected to suspension culture for 30 days to form a germ layer body. Subsequently, the aggregated cells were dissociated, cultured in a culture medium obtained by adding 20 ng/ml of FGF2 (PeproTech, Inc.) to an MHM medium of which the composition is shown in Table 1 above, and differentiated into neurospheres.
Subsequently, each neurosphere derived from iPS cells was treated with each of DAPT and Compound 34. Subsequently, one neurosphere having a diameter of about 100 μm was selected from the neurospheres in each group and subjected to an RNA-seq analysis.
FIG. 3 is a graph showing the results obtained by treating the neurosphere derived from 201B7 cells with each of DAPT and Compound 34, carrying out the RNA-seq analysis, and quantifying the expression level of GADD45G based on transcriptome data. In FIG. 3, “Ctl” indicates the result obtained from the control, “DAPT” indicates the result obtained by the DAPT treatment, and “C. 34” indicates the result obtained by Compound 34 treatment.

The mark [5] stands for this setting: neurosphere derived from 201B7 cells.
[6] abbreviates: neurosphere derived from 414C2 cells.

SMILES strings stand for the structures.

For the compound `O=C1Nc2ccccc2C(c2ccccc2)=N[C@@H]1NC(=O)[C@H](c1ccc(F)cc1)[C@@H](CO)c1ccc(F)c(F)c1` [Compound 34], in test [1], the “neurite outgrowth, Tau protein immunostaining” value was “particularly promoted” and the “neurite outgrowth (length of the neurite), βIII-tubulin immunostaining” value is recorded as “particularly promoted”. The “concentration at which the neurite outgrowth-promoting effect is obtained” value in test [1] (compared with DAPT) was “low concentration as compared with DAPT”. The “amount of phosphorylated CDC25B in the neurosphere” value in test [2] is given as “significantly increased”. For the same compound, in test [3], the “expression level of CDC25B” value is reported as “slightly increased”. The “expression of GADD45G” value in test [4] (setting [5]) is reported as “significantly increased”. Besides, the “expression of GADD45G” value in test [4] (setting [6]) was “significantly increased”.
`C[C@H](NC(=O)Cc1cc(F)cc(F)c1)C(=O)N[C@H](C(=O)OC(C)(C)C)c1ccccc1` [DAPT]: in test [1], the “neurite outgrowth, Tau protein immunostaining” value is “particularly promoted” and the “neurite outgrowth (length of the neurite), βIII-tubulin immunostaining” value is “particularly promoted”. The “amount of phosphorylated CDC25B in the neurosphere” value in test [2] is “significantly increased”. In addition, in test [3], the “expression level of CDC25B” value is “slightly increased”. The “expression of GADD45G” value in test [4] (setting [5]) is on record as “significantly increased”. Moreover, the “expression of GADD45G” value in test [4] (setting [6]) was “significantly increased”.
